pIC50: −log10 of the molar value.
Legend:
Assay type in all cases: biochemical
[1] = molecular target: PI3Kδ (Homo sapiens, UniProt O00329); assay: PI3Kδ inhibition
[2] = molecular target: PI3Kγ (Homo sapiens, UniProt P48736); assay: PI3Kγ inhibition
[3] = molecular target: PI3Kβ (Homo sapiens, UniProt P42338); assay: PI3Kβ inhibition
[4] = molecular target: PI3Kα (Homo sapiens, UniProt P42336); assay: PI3Kα inhibition
[5] = system: PDE4; assay: PDE4 inhibition; conditions: for pIC50: read-out: PDE4 inhibition IC50
[6] = molecular target: PDE2 (Homo sapiens, UniProt O00408); assay: PDE2 inhibition
[7] = system: class I PI3K isoforms; assay: Inhibition of PI3K isoforms; conditions: for inhibition of PI3K: same compounds synthesized by compound 5 as key intermediate (no contaminant)

Sequence of PI3Kδ (O00329 whole entry, species assumed): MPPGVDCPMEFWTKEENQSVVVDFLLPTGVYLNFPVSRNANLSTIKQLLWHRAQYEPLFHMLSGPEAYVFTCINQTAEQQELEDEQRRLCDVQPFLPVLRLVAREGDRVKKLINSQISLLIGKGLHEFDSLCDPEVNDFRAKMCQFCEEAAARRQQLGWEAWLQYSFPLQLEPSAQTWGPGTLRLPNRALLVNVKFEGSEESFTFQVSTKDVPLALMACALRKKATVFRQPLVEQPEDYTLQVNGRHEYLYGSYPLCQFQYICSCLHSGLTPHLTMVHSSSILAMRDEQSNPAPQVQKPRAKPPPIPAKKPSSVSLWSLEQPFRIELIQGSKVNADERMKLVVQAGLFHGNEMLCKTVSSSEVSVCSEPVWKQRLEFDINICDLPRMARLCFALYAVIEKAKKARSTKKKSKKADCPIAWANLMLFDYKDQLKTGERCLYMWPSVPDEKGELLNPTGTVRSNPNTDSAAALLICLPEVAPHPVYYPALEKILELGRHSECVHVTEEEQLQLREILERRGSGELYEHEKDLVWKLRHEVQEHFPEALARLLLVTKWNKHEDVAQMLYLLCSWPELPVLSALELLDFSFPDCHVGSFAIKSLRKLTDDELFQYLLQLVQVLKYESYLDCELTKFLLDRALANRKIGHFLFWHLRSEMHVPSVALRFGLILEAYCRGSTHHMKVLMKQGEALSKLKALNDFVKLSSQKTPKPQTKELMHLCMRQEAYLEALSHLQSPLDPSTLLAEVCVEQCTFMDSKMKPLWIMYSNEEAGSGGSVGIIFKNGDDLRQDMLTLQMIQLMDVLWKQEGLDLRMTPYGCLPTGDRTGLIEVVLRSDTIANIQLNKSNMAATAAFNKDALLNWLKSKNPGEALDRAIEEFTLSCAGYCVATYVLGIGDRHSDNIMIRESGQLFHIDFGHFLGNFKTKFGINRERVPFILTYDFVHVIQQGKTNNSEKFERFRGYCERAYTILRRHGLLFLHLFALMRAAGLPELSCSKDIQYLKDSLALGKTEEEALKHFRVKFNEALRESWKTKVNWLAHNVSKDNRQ
Sequence of PI3Kδ (P27986 whole entry partner, species assumed): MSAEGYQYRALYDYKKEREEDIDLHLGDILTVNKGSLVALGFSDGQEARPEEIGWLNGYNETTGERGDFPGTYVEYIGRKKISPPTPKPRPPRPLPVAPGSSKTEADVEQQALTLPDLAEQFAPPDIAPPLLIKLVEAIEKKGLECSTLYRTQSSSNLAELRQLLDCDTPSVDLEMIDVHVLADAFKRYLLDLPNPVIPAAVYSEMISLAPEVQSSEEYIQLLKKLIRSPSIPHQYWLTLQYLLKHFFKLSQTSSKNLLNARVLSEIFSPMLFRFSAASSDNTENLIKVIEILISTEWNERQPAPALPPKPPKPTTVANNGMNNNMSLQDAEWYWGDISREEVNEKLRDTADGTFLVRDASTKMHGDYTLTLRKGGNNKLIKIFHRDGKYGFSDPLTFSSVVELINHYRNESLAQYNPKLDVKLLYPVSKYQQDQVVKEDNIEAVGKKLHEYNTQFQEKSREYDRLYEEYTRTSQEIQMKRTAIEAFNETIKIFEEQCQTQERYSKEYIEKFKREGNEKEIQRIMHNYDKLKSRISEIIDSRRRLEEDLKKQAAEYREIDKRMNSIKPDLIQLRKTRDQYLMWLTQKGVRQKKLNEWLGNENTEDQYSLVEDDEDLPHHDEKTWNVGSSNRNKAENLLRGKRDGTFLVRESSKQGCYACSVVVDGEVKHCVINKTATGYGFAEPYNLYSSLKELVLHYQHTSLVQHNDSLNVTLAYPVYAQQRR
Sequence of PI3Kα (P42336 whole entry, species assumed): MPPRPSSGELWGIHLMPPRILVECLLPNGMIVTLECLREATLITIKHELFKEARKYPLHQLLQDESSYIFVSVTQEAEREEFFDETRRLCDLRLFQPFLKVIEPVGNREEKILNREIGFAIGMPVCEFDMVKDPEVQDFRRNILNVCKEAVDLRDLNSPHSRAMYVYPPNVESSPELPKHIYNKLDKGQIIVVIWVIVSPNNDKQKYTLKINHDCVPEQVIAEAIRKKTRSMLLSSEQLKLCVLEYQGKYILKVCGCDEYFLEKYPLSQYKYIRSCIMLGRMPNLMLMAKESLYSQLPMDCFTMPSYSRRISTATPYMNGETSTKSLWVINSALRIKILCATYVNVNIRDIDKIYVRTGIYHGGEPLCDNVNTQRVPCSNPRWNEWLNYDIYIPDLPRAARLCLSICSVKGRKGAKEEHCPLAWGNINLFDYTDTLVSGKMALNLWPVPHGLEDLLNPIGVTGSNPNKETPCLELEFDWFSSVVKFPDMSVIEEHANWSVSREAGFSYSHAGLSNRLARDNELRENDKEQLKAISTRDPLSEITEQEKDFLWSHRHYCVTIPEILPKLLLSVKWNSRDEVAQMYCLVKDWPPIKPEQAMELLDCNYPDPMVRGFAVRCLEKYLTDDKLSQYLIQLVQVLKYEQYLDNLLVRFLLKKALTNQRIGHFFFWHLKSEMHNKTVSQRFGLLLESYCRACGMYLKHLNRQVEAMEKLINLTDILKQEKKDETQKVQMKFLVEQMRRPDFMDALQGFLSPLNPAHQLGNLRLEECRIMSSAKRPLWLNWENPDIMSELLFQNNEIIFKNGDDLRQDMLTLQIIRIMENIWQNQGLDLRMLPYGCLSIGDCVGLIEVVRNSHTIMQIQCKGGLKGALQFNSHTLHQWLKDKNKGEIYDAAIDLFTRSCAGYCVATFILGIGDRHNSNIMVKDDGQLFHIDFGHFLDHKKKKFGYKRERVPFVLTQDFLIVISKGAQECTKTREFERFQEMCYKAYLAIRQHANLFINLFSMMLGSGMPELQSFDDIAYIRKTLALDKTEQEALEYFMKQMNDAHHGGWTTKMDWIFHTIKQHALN
Sequence of PI3Kα (P27986 whole entry partner, species assumed): as the sequence (P27986 whole entry partner, species assumed) above
Sequence of PI3Kβ (P42338 whole entry, species assumed): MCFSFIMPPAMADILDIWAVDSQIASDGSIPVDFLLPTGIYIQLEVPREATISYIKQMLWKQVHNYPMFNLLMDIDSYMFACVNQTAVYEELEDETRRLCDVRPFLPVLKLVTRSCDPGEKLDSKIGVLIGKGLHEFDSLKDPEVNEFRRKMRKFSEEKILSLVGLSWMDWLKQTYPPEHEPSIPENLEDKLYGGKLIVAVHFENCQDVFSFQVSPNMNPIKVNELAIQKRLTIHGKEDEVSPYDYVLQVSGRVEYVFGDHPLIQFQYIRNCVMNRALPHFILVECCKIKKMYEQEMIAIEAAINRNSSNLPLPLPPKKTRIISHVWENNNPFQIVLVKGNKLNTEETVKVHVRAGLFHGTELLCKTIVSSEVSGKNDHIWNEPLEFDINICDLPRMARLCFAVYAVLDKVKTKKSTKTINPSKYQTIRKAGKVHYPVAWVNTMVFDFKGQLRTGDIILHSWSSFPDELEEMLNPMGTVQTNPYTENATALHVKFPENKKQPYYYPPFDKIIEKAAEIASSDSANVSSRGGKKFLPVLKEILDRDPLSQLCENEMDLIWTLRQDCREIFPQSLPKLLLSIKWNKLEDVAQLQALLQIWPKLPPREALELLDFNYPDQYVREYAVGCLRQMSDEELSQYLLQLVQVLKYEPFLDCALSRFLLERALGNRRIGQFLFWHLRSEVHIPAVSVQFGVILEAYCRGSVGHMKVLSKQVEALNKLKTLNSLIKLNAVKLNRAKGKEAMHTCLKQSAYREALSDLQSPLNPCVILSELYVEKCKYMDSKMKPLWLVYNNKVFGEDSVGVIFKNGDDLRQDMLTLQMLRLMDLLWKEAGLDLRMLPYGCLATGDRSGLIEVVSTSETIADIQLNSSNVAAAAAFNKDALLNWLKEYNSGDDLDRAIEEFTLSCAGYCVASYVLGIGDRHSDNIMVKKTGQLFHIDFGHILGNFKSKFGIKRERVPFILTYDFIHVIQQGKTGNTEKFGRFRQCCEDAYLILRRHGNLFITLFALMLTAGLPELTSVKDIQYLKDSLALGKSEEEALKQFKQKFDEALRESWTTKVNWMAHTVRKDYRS
Sequence of PI3Kβ (P27986 whole entry partner, species assumed): as the sequence (P27986 whole entry partner, species assumed) above
Sequence of PDE2 (O00408 whole entry, canonical isoform): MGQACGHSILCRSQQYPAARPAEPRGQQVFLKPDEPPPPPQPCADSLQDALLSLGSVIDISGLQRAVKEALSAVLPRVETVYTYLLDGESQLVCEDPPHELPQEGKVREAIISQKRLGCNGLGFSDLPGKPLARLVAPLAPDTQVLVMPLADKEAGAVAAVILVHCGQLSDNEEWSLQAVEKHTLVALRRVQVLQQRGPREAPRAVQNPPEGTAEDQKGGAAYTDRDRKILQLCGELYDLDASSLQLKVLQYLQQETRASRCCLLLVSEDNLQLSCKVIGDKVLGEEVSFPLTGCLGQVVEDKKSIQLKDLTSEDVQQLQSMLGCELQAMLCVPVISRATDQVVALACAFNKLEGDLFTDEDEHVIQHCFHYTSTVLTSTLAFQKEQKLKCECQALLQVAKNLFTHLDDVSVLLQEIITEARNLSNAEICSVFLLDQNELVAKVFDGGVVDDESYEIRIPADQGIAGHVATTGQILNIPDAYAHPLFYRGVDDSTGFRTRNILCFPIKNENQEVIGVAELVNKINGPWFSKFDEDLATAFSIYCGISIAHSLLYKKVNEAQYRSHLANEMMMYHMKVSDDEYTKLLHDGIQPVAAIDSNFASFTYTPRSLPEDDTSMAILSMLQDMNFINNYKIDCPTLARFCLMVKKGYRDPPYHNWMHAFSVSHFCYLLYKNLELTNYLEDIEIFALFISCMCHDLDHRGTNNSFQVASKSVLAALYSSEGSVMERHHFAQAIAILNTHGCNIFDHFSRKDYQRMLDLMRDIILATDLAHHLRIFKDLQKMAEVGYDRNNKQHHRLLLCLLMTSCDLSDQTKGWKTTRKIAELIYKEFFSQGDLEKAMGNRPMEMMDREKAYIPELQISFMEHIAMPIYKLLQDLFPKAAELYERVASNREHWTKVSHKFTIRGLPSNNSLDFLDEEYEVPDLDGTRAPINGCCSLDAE

Row | Compound | pIC50 [1] | pIC50 [2] | pIC50 [3] | pIC50 [4] | activity against PDE4 (in words) [5] | pIC50 [5] | pIC50 [6] | activity against PDE2 (in words) [6] | inhibition of PI3K [7] | inhibition of PI3K isoforms (in words) [7]
1 | O=C1NC(=S)/C(=C/c2ccc3c(c2)OCO3)S1 [Compound 4, (Z)-5-(Benzo[d][1,3]dioxol-5-ylmethylene)-4-thioxothiazolidin-2-one] | 6.12 | 6.92 | 6.82 |  |  |  |  |  |  | 
2 | CC(O)C/N=C1\NC(=O)S\C1=C/c1ccc2c(c1)OCO2 (stereo not shown) [Compound 7z, (4Z,5Z)-5-(Benzo[d][1,3]dioxol-5-ylmethylene)-4-((2-hydroxypropyl)imino)thiazolidin-2-one] | < 4.00 | < 4.00 | < 4.00 | < 4.00 | virtually inactive | < 5.00 | < 5.00 | virtually inactive |  | 
3 | O=C1NC(=N\C2CCCC2)/C(=C/c2ccc3c(c2)OCO3)S1 [Compound 7f, (4Z,5Z)-5-(Benzo[d][1,3]dioxol-5-ylmethylene)-4-(cyclopentylimino)thiazolidin-2-one] |  |  |  |  |  |  |  |  | no inhibition | 
4 | C[C@H](/N=C1\NC(=O)S\C1=C/c1ccc2c(c1)OCO2)C(=O)O [Compound 7aa, (S)-2-((Z)-((Z)-5-(Benzo[d][1,3]dioxol-5-ylmethylene)-2-oxothiazolidin-4-ylidene)amino)propanoic Acid] | 4.21 | 4.84 | 4.03 | 4.72 |  |  |  |  |  | 
5 | O=C1NC(=N\CCc2ccc(O)cc2)/C(=C/c2ccc3c(c2)OCO3)S1 [Compound 7e, (4Z,5Z)-5-(Benzo[d][1,3]dioxol-5-ylmethylene)-4-((4-hydroxyphenethyl)imino)thiazolidin-2-one] |  |  |  |  |  |  |  |  | no inhibition | 
6 | CSC1=NC(=O)S/C1=C\c1ccc2c(c1)OCO2 [Compound 5, (Z)-5-(Benzo[d][1,3]dioxol-5-ylmethylene)-4-(methylthio)thiazol-2(5H)-one] | 7.42 | 7.22 | < 6.00 | 7.25 |  |  |  |  |  | 
7 | C/N=C1\NC(=O)S\C1=C/c1ccc2c(c1)OCO2 [Compound 7x, (4Z,5Z)-5-(Benzo[d][1,3]dioxol-5-ylmethylene)-4-(methylimino)thiazolidin-2-one] | < 4.00 | < 4.00 | < 4.00 | 4.05 | virtually inactive | < 5.00 | < 5.00 | virtually inactive |  | 
8 | O=C1NC(=N\[C@@H](Cc2c[nH]c3ccccc23)C(=O)O)/C(=C/c2ccc3c(c2)OCO3)S1 [Compound 7ab] | 4.37 | 4.96 | 4.10 | 4.59 |  |  |  |  |  | 
9 | COc1ccc(C/N=C2\NC(=O)S\C2=C/c2ccc3c(c2)OCO3)cc1OC [Compound 7p, (4Z,5Z)-5-(Benzo[d][1,3]dioxol-5-ylmethylene)-4-((3,4-dimethoxybenzyl)imino)thiazolidin-2-one] | < 4.00 | < 4.00 | < 4.00 | < 4.00 |  | 5.29 | 5.33 |  |  | no inhibition
10 | O=C1NC(=O)/C(=C/c2ccc3c(c2)OCO3)S1 [Compound 2, (Z)-5-(Benzo[d][1,3]dioxol-5-ylmethylene) thiazolidine-2,4-dione, reference compound] |  | 7.40 | 6.22 |  |  |  |  |  |  | potent inhibitor

Source: paper PMC3755381 (Australian journal of chemistry, 2012)
